# Data: US20260356819A1, “OXOISOINDOLINYL-SUBSTITUTED […] DERIVATIVE AND USE THEREOF” (GLUETACS THERAPEUTICS (SHANGHAI) CO., LTD., priority 2023, published 2026)
# Assays:
# Type in all cases: cell-based
# Details in all cases: compounds at 50 nM and 500 nM
# IKZF1 = biological target: T1, IKZF1 (Homo sapiens, UniProt Q13422+Q96SW2); assay: Western blot degradation of IKZF1 in hPBMCs (24 h)
# T1 construct: The supernatant was aspirated as the extracted total cell protein; endogenous in cells; host or cells: human peripheral blood mononuclear cells (hPBMCs)
# Summary of the method: (§1)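 Read-out is Western blot band grayscale, divided by internal control band and normalised to give percent target protein remaining; degradation rate is 1 minus that value. Cells were human PBMCs exposed to compound at 50 nM and 500 nM for 24 hours.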
# CK1α = biological target: T2, CK1α (Homo sapiens, UniProt P48729+Q96SW2); assay: Western blot degradation of CK1α in hPBMCs (24 h)
# T2 construct: The supernatant was aspirated as the extracted total cell protein; endogenous in cells; host or cells: human peripheral blood mononuclear cells (hPBMCs)
# Summary of the method: as §1
# IKZF3 = biological target: T3, IKZF3 (Homo sapiens, UniProt Q96SW2+Q9UKT9); assay: Western blot degradation of IKZF3 in hPBMCs (24 h)
# T3 construct: The supernatant was aspirated as the extracted total cell protein; endogenous in cells; host or cells: human peripheral blood mononuclear cells (hPBMCs)
# Summary of the method: as §1
# WEE1 = biological target: T4, WEE1 (Homo sapiens, UniProt P30291+Q96SW2); assay: Western blot degradation of WEE1 in hPBMCs (24 h)
# T4 construct: The supernatant was aspirated as the extracted total cell protein; endogenous in cells; host or cells: human peripheral blood mononuclear cells (hPBMCs)
# Summary of the method: as §1
# IKZF2 = biological target: T5, IKZF2 (Homo sapiens, UniProt Q96SW2+Q9UKS7); assay: Western blot degradation of IKZF2 in hPBMCs (24 h)
# T5 construct: The supernatant was aspirated as the extracted total cell protein; endogenous in cells; host or cells: human peripheral blood mononuclear cells (hPBMCs)
# Summary of the method: as §1
# GSPT1 = biological target: T6, GSPT1 (Homo sapiens, UniProt P15170+Q96SW2); assay: Western blot degradation of GSPT1 in hPBMCs (24 h)
# T6 construct: The supernatant was aspirated as the extracted total cell protein; endogenous in cells; host or cells: human peripheral blood mononuclear cells (hPBMCs)
# Summary of the method: as §1
# T5 sequence (Q9UKS7 whole entry): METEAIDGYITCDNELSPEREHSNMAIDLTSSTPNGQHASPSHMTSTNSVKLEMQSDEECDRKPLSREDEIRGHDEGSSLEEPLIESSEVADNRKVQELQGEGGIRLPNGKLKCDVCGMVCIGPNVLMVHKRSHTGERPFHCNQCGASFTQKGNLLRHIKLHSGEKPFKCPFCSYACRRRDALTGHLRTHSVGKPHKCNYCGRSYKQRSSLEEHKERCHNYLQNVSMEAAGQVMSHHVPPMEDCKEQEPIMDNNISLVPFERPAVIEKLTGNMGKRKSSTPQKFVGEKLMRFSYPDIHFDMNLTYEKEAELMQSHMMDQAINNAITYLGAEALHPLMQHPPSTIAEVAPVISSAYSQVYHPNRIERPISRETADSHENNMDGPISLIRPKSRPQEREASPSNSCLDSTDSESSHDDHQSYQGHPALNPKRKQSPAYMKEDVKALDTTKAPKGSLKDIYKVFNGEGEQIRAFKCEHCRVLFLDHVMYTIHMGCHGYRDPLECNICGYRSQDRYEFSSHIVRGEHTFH
# T5 sequence (Q96SW2 whole entry): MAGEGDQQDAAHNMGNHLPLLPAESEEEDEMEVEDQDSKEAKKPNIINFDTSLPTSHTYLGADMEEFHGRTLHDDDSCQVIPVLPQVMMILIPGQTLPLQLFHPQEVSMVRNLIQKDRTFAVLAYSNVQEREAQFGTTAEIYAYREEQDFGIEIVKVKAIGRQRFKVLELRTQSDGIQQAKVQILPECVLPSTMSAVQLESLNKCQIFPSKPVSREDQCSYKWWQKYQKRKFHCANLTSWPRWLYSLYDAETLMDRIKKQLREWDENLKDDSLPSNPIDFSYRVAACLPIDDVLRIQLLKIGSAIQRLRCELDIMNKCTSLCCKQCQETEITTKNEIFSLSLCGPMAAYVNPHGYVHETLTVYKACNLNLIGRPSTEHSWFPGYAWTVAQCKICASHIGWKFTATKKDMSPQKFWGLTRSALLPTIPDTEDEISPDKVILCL
# T5 sequence (Q16531 whole entry partner): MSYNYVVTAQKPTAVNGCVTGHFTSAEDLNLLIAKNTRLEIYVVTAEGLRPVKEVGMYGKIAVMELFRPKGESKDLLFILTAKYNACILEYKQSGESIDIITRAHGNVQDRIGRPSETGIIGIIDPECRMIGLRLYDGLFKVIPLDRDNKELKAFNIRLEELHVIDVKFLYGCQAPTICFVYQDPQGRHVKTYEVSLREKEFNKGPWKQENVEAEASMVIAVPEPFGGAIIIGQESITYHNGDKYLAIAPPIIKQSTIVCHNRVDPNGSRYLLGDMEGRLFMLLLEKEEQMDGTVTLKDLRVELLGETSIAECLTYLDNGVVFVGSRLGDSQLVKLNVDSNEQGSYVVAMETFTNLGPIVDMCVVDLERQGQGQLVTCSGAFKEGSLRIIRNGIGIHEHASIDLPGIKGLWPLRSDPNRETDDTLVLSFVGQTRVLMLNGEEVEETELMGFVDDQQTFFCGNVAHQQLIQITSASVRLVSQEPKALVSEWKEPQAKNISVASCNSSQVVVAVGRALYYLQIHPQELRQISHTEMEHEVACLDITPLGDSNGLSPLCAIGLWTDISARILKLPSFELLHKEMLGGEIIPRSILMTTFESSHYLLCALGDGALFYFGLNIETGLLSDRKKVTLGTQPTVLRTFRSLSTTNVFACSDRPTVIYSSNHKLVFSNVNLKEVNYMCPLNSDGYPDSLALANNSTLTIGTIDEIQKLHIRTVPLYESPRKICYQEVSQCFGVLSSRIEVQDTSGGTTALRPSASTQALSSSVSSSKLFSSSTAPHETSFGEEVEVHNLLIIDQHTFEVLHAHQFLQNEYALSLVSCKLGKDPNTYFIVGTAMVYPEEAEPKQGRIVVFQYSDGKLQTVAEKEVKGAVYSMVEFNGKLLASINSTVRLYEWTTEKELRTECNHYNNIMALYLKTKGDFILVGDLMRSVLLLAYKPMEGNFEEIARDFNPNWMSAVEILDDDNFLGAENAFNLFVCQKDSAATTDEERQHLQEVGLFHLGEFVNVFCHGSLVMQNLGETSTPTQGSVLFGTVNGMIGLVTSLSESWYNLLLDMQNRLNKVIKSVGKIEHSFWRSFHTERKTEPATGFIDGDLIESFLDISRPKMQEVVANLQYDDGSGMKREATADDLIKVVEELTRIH
# T4 sequence (P30291 whole entry): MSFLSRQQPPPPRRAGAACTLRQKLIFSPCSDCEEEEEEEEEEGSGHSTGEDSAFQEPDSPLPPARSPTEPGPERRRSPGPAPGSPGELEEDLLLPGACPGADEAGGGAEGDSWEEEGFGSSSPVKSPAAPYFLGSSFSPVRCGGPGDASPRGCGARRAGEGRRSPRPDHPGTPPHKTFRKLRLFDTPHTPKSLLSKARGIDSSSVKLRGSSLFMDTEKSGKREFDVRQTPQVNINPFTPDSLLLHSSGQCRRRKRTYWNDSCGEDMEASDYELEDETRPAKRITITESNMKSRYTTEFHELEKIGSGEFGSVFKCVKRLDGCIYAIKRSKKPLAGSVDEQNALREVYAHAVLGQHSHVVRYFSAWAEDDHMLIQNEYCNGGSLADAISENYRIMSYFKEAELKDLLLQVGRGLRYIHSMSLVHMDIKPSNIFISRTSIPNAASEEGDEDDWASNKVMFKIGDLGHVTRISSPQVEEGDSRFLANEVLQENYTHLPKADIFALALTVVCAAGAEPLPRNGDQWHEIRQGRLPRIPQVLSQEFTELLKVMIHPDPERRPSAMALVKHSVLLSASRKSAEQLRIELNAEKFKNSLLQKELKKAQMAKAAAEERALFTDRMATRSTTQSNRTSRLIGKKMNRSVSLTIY
# T4 sequence (Q96SW2 whole entry): as the sequence (Q96SW2 whole entry) above
# T4 sequence (Q16531 whole entry partner): as the sequence (Q16531 whole entry partner) above
# T6 sequence (P15170 whole entry): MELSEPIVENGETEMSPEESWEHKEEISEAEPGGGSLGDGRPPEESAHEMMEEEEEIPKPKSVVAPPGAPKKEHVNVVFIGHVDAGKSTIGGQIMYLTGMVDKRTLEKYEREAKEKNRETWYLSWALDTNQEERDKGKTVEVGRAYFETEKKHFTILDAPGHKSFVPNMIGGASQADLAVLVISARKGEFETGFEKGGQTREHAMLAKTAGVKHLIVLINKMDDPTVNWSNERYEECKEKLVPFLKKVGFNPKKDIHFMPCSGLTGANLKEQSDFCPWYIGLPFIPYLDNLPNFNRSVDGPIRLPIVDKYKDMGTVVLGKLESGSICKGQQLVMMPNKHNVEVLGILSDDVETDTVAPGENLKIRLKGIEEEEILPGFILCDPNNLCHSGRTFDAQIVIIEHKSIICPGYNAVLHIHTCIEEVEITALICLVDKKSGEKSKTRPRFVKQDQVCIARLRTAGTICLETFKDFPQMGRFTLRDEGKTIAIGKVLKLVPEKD
# T6 sequence (Q96SW2 whole entry): as the sequence (Q96SW2 whole entry) above
# T6 sequence (Q16531 whole entry partner): as the sequence (Q16531 whole entry partner) above
# T1 sequence (Q13422 whole entry): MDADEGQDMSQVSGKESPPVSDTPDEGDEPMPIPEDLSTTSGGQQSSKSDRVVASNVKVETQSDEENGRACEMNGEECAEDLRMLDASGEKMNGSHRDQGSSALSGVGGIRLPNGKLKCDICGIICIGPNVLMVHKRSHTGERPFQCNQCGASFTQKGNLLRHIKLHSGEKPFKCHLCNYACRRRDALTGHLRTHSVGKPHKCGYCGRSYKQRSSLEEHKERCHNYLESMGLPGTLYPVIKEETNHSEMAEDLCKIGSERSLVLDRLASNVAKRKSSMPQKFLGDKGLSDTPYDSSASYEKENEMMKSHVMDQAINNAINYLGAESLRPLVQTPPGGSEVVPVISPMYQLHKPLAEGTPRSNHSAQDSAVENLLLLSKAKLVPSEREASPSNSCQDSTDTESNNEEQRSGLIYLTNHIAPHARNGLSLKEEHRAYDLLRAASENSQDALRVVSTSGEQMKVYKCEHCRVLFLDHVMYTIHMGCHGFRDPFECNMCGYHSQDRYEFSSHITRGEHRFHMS
# T1 sequence (Q96SW2 whole entry): as the sequence (Q96SW2 whole entry) above
# T1 sequence (Q16531 whole entry partner): as the sequence (Q16531 whole entry partner) above
# T3 sequence (Q9UKT9 whole entry): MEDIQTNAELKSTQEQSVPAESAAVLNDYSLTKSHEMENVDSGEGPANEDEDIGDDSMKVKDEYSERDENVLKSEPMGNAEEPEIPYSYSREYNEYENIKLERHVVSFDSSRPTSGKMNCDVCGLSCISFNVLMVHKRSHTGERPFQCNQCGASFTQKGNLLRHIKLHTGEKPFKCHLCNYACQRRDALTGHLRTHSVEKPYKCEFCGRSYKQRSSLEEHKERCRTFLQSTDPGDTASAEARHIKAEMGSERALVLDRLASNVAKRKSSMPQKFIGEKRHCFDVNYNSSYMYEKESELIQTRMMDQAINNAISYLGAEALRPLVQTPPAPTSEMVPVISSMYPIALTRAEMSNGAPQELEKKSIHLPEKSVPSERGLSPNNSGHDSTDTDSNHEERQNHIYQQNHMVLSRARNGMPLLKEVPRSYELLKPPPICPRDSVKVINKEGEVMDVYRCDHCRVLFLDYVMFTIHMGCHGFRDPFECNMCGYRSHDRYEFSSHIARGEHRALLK
# T3 sequence (Q96SW2 whole entry): as the sequence (Q96SW2 whole entry) above
# T3 sequence (Q16531 whole entry partner): as the sequence (Q16531 whole entry partner) above
Compound,IKZF1 substrate protein remaining % (IKZF1),CK1α substrate protein remaining % (CK1α),IKZF3 substrate protein remaining % (IKZF3),WEE1 substrate protein remaining % (WEE1),IKZF2 substrate protein remaining % (IKZF2),GSPT1 substrate protein remaining % (GSPT1)
"O=C1CCN(N2C(=O)c3ccc(CN4CCC(c5ccnc6cc(F)ccc56)CC4)cc3C2=O)C(=O)N1 [GT-07689, 2-(2,4-dioxotetrahydropyrimidin-1(2H)-yl)-5-((4-(7-fluoroquinolin-4-yl)piperidin-1-yl)methyl)isoindoline-1,3-dione]",B (80%< substrate protein remaining % ≤100%),A (0% ≤ substrate protein remaining % ≤80%),B (80%< substrate protein remaining % ≤100%),B (80%< substrate protein remaining % ≤100%),B (80%< substrate protein remaining % ≤100%),A (0% ≤ substrate protein remaining % ≤80%)
"O=C1CCN(N2Cc3cc(CN4CC(C5CCOc6cc(F)ccc65)C4)ccc3C2=O)C(=O)N1 (stereo not drawn) [GT-07690, 1-(5-((3-(7-fluorochroman-4-yl)azetidin-1-yl)methyl)-1-oxoisoindolin-2-yl)dihydropyrimidine-2,4(1H,3H)-dione]",B (80%< substrate protein remaining % ≤100%),A (0% ≤ substrate protein remaining % ≤80%),B (80%< substrate protein remaining % ≤100%),B (80%< substrate protein remaining % ≤100%),A (0% ≤ substrate protein remaining % ≤80%),A (0% ≤ substrate protein remaining % ≤80%)
"O=C1CCN(N2Cc3cc(CN4CC(c5ccnc6cc(F)ccc56)C4)ccc3C2=O)C(=O)N1 [GT-07711, 1-(5-((3-(7-fluoroquinolin-4-yl)azetidin-1-yl)methyl)-1-oxoisoindolin-2-yl)dihydropyrimidine-2,4(1H,3H)-dione]",A (0% ≤ substrate protein remaining % ≤80%),A (0% ≤ substrate protein remaining % ≤80%),A (0% ≤ substrate protein remaining % ≤80%),B (80%< substrate protein remaining % ≤100%),A (0% ≤ substrate protein remaining % ≤80%),A (0% ≤ substrate protein remaining % ≤80%)
"O=C1CCN(N2C(=O)c3ccc(CN4CC(C5CCOc6cc(F)ccc65)C4)cc3C2=O)C(=O)N1 (stereo not drawn) [GT-07715, 2-(2,4-dioxotetrahydropyrimidin-1(2H)-yl)-5-((3-(7-fluorochroman-4-yl)azetidin-1-yl)methyl)isoindoline-1,3-dione]",B (80%< substrate protein remaining % ≤100%),A (0% ≤ substrate protein remaining % ≤80%),B (80%< substrate protein remaining % ≤100%),B (80%< substrate protein remaining % ≤100%),B (80%< substrate protein remaining % ≤100%),A (0% ≤ substrate protein remaining % ≤80%)
"O=C1CCN(N2C(=O)c3ccc(CN4CC(c5ccnc6cc(F)ccc56)C4)cc3C2=O)C(=O)N1 [GT-07718, 2-(2,4-dioxotetrahydropyrimidin-1(2H)-yl)-5-((3-(7-fluoroquinolin-4-yl)azetidin-1-yl)methyl)isoindoline-1,3-dione]",B (80%< substrate protein remaining % ≤100%),A (0% ≤ substrate protein remaining % ≤80%),A (0% ≤ substrate protein remaining % ≤80%),B (80%< substrate protein remaining % ≤100%),B (80%< substrate protein remaining % ≤100%),A (0% ≤ substrate protein remaining % ≤80%)
"O=C1CCN(N2Cc3cc(CN4CCn5c(nnc5C(F)(F)F)C4)ccc3C2=O)C(=O)N1 [GT-07719, 1-(1-oxo-5-((3-(trifluoromethyl)-5,6-dihydro-[1,2,4]triazolo[4,3-a]pyrazin-7 (8H)-yl)methyl)isoindolin-2-yl)dihydropyrimidine-2,4(1H,3H)-dione]",B (80%< substrate protein remaining % ≤100%),A (0% ≤ substrate protein remaining % ≤80%),A (0% ≤ substrate protein remaining % ≤80%),B (80%< substrate protein remaining % ≤100%),A (0% ≤ substrate protein remaining % ≤80%),A (0% ≤ substrate protein remaining % ≤80%)
"O=C1CCN(N2Cc3cc(CN4CCc5sccc5C4)ccc3C2=O)C(=O)N1 [GT-07720, 1-(5-((6,7-dihydrothieno[3,2-c]pyridin-5 (4H)-yl)methyl)-1-oxoisoindolin-2-yl)dihydropyrimidine-2,4(1H,3H)-dione]",A (0% ≤ substrate protein remaining % ≤80%),A (0% ≤ substrate protein remaining % ≤80%),A (0% ≤ substrate protein remaining % ≤80%),A (0% ≤ substrate protein remaining % ≤80%),A (0% ≤ substrate protein remaining % ≤80%),A (0% ≤ substrate protein remaining % ≤80%)
"O=C1CCN(N2Cc3cc(CN4CCN(Cc5ccc(C67CC8CC(CC(C8)C6)C7)cc5)CC4)ccc3C2=O)C(=O)N1 [GT-07721, 1-(5-((4-(4-((3r,5r,7r)-adamantan-1-yl)benzyl)piperazin-1-yl)methyl)-1-oxoisoindolin-2-yl)dihydropyrimidine-2,4(1H,3H)-dione]",A (0% ≤ substrate protein remaining % ≤80%),A (0% ≤ substrate protein remaining % ≤80%),A (0% ≤ substrate protein remaining % ≤80%),A (0% ≤ substrate protein remaining % ≤80%),A (0% ≤ substrate protein remaining % ≤80%),A (0% ≤ substrate protein remaining % ≤80%)
"O=C1CCN(N2C(=O)c3ccc(CN4CCN(Cc5ccc(C67CC8CC(CC(C8)C6)C7)cc5)CC4)cc3C2=O)C(=O)N1 [GT-07722, 5-((4-(4-((3r,5r,7r)-adamantan-1-yl)benzyl)piperazin-1-yl)methyl)-2-(2,4-dioxotetrahydropyrimidin-1(2H)-yl)isoindoline-1,3-dione]",B (80%< substrate protein remaining % ≤100%),A (0% ≤ substrate protein remaining % ≤80%),A (0% ≤ substrate protein remaining % ≤80%),A (0% ≤ substrate protein remaining % ≤80%),A (0% ≤ substrate protein remaining % ≤80%),A (0% ≤ substrate protein remaining % ≤80%)
"O=C1CCN(N2Cc3cc(CNC45CC6CC(CC(O)(C6)C4)C5)ccc3C2=O)C(=O)N1 [GT-07784, 1-(5-((((1r,3s,5R,7S)-3-hydroxyadamantan-1-yl)amino)methyl)-1-oxoisoindolin-2-yl)dihydropyrimidine-2,4(1H,3H)-dione]",B (80%< substrate protein remaining % ≤100%),B (80%< substrate protein remaining % ≤100%),B (80%< substrate protein remaining % ≤100%),B (80%< substrate protein remaining % ≤100%),A (0% ≤ substrate protein remaining % ≤80%),B (80%< substrate protein remaining % ≤100%)
